Test results taken from patent US20040229379A1, “Assay” (priority 2003, published 2004).

Tested on: PDHK
Experiment: Binding affinity of fluorescent binder structures for PDHK

Q: Which “binding affinity for PDHK relative to (III/IIIA)” value does the source give for `Cc1cc(C)n2c1C=C1C=CC(CCC(=O)NCc3ccc(C(=O)N4C[C@H](C)N(C(=O)[C@@](C)(O)C(F)(F)F)C[C@H]4C)cc3)=[N+]1[B-]2(F)F` [(IV)] here?
A: The value was “lower binding affinity for PDHK than (III/IIIA)”.
